Results on eight compounds are retold here after patent publication US7816520B2, “5,6-diphenyl-1,2,4-triazinic dimeric derivatives and the use thereof in the form of sun-protective agents” (Pierre Fabre Dermo-Cosmetique, priority 2004, dated 2010).

Entries after “also recorded” stand apart in the source; their conditions may differ.

Series [1] in a line: Spectral distribution in UVA and UVB, 290 nm to 400 nm. Format: physicochemical. Particulars: for Absorption peaks: range from 290 nm to 400 nm; for Spectral distribution (UV bands absorbed): absorption spectra, FIGS. 1-3. The source says: The products tested are classified according to spectral distribution in UVA and UVB in a range from 290 nm to 400 nm. It is possible to differentiate them according to their spectral distribution: Products with a narrow spectrum: • Products absorbing in the range between 280 nm and 320 nm (UVB) • Products absorbing in the range between 320 nm and 400 nm (UVA) Products with a broad spectrum: • Products absorbing in UVB (280-320 nm) and UVA-II […] • Products covering UVB and UVA (280-400 nm).

Series [2] can be described thus: Spectral characteristics: molar extinction coefficient and specific absorbance (UV spectrophotometry in ethyl acetate). Particulars: 10 μg/ml; for Maximum molar extinction coefficient UVB / Maximum specific absorbance UVB: UVB band; for Maximum molar extinction coefficient UVA / Maximum specific absorbance UVA: UVA band. Type of series: physicochemical. The text has this:
The calculation of the molar extinction coefficient (ε) is made from the Beer-Lambert law:
[formula] Wherein: • A=absorbance • I0=intensity of the incident light • I=intensity of the transmitted light • ε=molar extinction (or molar absorbance) coefficient in M^−1 cm^−1 • l=path length in cm • c=concentration in mol/l
The molar extinction coefficient can be expressed with respect to a given mass of the product. It thus makes it possible to be able to compare the coefficients of extinction between products for the same given quantity. This quantity is 1% by weight. The molar extinction coefficient thus becomes the specific absorbance (A1cm^1%).
It is expressed as follows:
[formula] Wherein: • A1cm^1%=specific absorbance • ε=molar extinction coefficient • M=molar mass
The spectral characteristics of the compounds in comparison with commercial filters at a concentration of 10 μg/ml are summarized in tables 2-1 and 2-2.
Procedure: The products are dissolved in ethyl acetate to a concentration of 10 μg/ml. The spectra are measured using a dual-beam spectrophotometer (Varian CARY 50 Scan) between 290 nm and 400 nm.

Series [3] in a line: In vitro SPF measurement in a chemical solvent (Diffey and Robson). The settings on record: ethyl acetate, 10 μg/ml, transmittance 290-400 nm. As to the method: The in vitro methods of determining the protective effectiveness of sun products consist of measuring by transmission spectrophotometry the absorption spectrum of the filter in solution or of the product applied on a substrate with the aim of simulating the surface of the skin. The effectiveness against UVB and/or UVA rays, or the effect on the cutaneous response, are then determined by calculation, taking into account or not the UV radiation action spectrum for the damage considered.
The Sayre/Agin and Diffey/Robson method, used since the 1990s, involves a comparative measurement, with the aid of an integrating-sphere spectroradiometer, of the transition from 290 nm to 400 nm in 5 nm steps, the sample being subjected to UV radiation from a stable known source covering the whole of the UV spectrum (unfiltered xenon).
Diffey and Robson evaluate the erythemal response by the following calculation:
[formula] E(λ)=spectral irradiation in W(m-^2) (nm^−1) at 40° N sun at 20° zenith angle • ε=erythematous capacity
[formula] N(λ)=number of values for a given wavelength
The Diffey and Robson formula makes it possible to determine SPF from the measurement of transmittance between 290 nm and 400 nm. Transmittance is measured in solution in ethyl acetate at a concentration of 10 μg/ml using a UV-visible spectrophotometer (Varian CARY 50 Scan).
[formula] T(λ)=transmittance at wavelength λ

The nature of series [4]: Photostability in solution in a chemical solvent (Suntest CPS+). Type of series: physicochemical. The settings on record: 25 μg deposited from methanol, absorbance vs non-irradiated control, in % (unit assumed); for Photostability at 5 MED, mean: Suntest irradiation 5 MED; for Photostability at 10 MED, mean: Suntest irradiation 10 MED. The source says: A Suntest CPS+(Atlas, Linsengenicht/Altenhasslan, Germany) was used. The Suntest makes it possible to reproduce the solar spectrum and thus to carry out exposures inside at any time without weather constraints.
The radiance of the solar simulator was carefully measured with a spectroradiometer (MSS 2044, Bielefeld, Germany). UVB and UVA intensities were 0.49 mW/cm^2 and 6.32 mW/cm^2, respectively. The MED value defined by COLIPA is 5.6 J/cm^2 in total UV (22). The UV total (UVA+UVB) accounts for 14.8% of the energy delivered by the lamp (power 460 W/m^2). An irradiation dose equivalent to 1 MED corresponds to 37.83 J/cm^2 (in total spectrum) delivered by the lamp.
The Suntest test duration is calculated using the following formula: t=H/E with: • E=illumination energy in W/m^2 • H=irradiation dose in J/m^2 • t=duration of the test in s
The solutions of the compounds are prepared at a concentration of 500 μg/ml in methanol. 50 μl (25 μg) of each solution are deposited in a crystallizer, then irradiated in the Suntest at 5, 10 and/or 20 MED. A non-irradiated control is prepared (deposit of 50 μl of solution and addition of 2.450 ml of methanol). The solvent evaporates during irradiation and the products are taken up in 2.5 ml of methanol. After irradiation, the absorbance of each solution is measured with the UV-visible spectrophotometer (Varian CARY 50 Scan).

Series [5] in a line: Solubility study in solvents or excipients used in cosmetics. Type of series: physicochemical. Particulars: for Solubilities: Soluble (solvent in which the compound is soluble): value = solvent; for Solubilities: Insoluble (solvent in which the compound is insoluble): value = solvent named in the Insoluble column.
[6] abbreviates: excipient Finsol V NT ® (C12-C15 alkyl benzoate).
Setting [7] is: excipient PEG400 ® (polyethylene glycol).

`CCCCC(CC)COC(=O)C=Cc1ccc(OC)cc1` (centres unmarked) [Parsol MCX ®, reference compound] yielded an Absorption peaks in series [1] of 310 nm. The “Maximum molar extinction coefficient UVB” value in series [2] was found to be 24600 M⁻¹ cm⁻¹. The “Maximum specific absorbance UVB” value in series [2] (A1cm^1%) came to 848. In series [2] (the 'at ...' part of the cell), the “Wavelength of maximum molar extinction coefficient UVB” value is “at 310 nm” and the “Wavelength of maximum specific absorbance UVB” value is “at 310 nm”. Besides, in series [3], the SPF worked out at 20.78.
For `c1ccc(-c2nnc(-c3cccc(-c4nnc(-c5ccccc5)c(-c5ccccc5)n4)c3)nc2-c2ccccc2)cc1` [WP76, 1,3-bis(5,6-diphenyl-1,2,4-triazin-3-yl)benzene], in series [1], the “Spectral distribution (UV bands absorbed)” value (“Spectral distribution” below) is listed as “absorbs in UVB” and the Absorption peaks is reported as 290 nm. Besides, in series [4], the “Photostability at 5 MED, mean” value worked out at 69.23 and the “Photostability at 10 MED, mean” value was 62.53. Moreover, the “Maximum molar extinction coefficient UVB” value in series [2] worked out at 54000 M⁻¹ cm⁻¹. In addition, in series [2] (A1cm^1%), the “Maximum specific absorbance UVB” value is 998. Moreover, in series [2] (the 'at ...' part of the cell), the “Wavelength of maximum molar extinction coefficient UVB” value was “at 290 nm” and the “Wavelength of maximum specific absorbance UVB” value was “at 290 nm”. In series [5], the “Solubilities: Soluble (solvent in which the compound is soluble)” value is on record as “DMSO or hot DMF”; the “Solubilities: Insoluble (solvent in which the compound is insoluble)” value (“Solubilities: Insoluble” for short) is “Water and MeOH and CHCl3 and Acetone and Acetonitrile and Benzene”.
Regarding `COc1ccc(C(=O)CC(=O)c2ccc(C(C)(C)C)cc2)cc1` [Parsol 1789 ®, reference compound], in series [1], the Absorption peaks worked out at 360 nm. Moreover, the “Maximum molar extinction coefficient UVA” value in series [2] came to 34100 M⁻¹ cm⁻¹. Also, the “Maximum molar extinction coefficient UVC” value in series [2] (UVC band) was determined as 8633 at M^−1 cm^−1. The “Maximum specific absorbance UVA” value in series [2] (A1cm^1%) turned out to be 1100. In series [2] (A1cm^1%, UVC band), the “Maximum specific absorbance UVC” value was found to be 278 at. Also, in series [2] (the 'at ...' part of the cell), the “Wavelength of maximum molar extinction coefficient UVA” value is given as “at 360 nm”, the “Wavelength of maximum molar extinction coefficient UVC” value is 275 nm, the “Wavelength of maximum specific absorbance UVA” value is reported as “at 360 nm” and the “Wavelength of maximum specific absorbance UVC” value was found to be 275 nm. In series [3], the SPF is recorded as 51.1.
For `CCCCC(CC)COc1ccc(-c2nc(-c3ccc(OC)cc3)nc(-c3ccc(OCC(CC)CCCC)cc3O)n2)c(O)c1` (centres unmarked) [Tinosorb S ®, reference compound], in series [2], the “Maximum molar extinction coefficient UVA” value was determined as 49580 M⁻¹ cm⁻¹ and the “Maximum molar extinction coefficient UVB” value amounted to 41750 M⁻¹ cm⁻¹. Further, in series [2] (A1cm^1%), the “Maximum specific absorbance UVA” value turned out to be 789 and the “Maximum specific absorbance UVB” value came to 751. In addition, in series [2] (the 'at ...' part of the cell), the “Wavelength of maximum molar extinction coefficient UVA” value is listed as “at 345 nm”, the “Wavelength of maximum molar extinction coefficient UVB” value was “at 310 nm”, the “Wavelength of maximum specific absorbance UVA” value was “at 345 nm” and the “Wavelength of maximum specific absorbance UVB” value is listed as “at 310 nm”. In series [3], the SPF turned out to be 76.19.
As for `c1ccc(-c2nnc(-c3ccc(-c4nnc(-c5ccccc5)c(-c5ccccc5)n4)cc3)nc2-c2ccccc2)cc1` [WP30, 1,4-bis(5,6-diphenyl-1,2,4-triazin-3-yl)benzene], in series [1], the “Spectral distribution” value was “absorb in UVB and UVA”; the Absorption peaks was 325 nm. Also, in series [4], the “Photostability at 5 MED, mean” value was determined as 77.75 and the “Photostability at 10 MED, mean” value is 56.12. Further, the “Maximum molar extinction coefficient UVA” value in series [2] amounted to 50200 M⁻¹ cm⁻¹. The “Maximum specific absorbance UVA” value in series [2] (A1cm^1%) turned out to be 928. Moreover, in series [2] (the 'at ...' part of the cell), the “Wavelength of maximum molar extinction coefficient UVA” value was “at 325 nm” and the “Wavelength of maximum specific absorbance UVA” value is “at 325 nm”. Also, in series [5], the “Solubilities: Soluble (solvent in which the compound is soluble)” value is listed as “DMSO or hot DMF; also recorded: Ethyl acetate (PS)”; the “Solubilities: Insoluble” value is “Acetonitrile and Benzene and Myritol and Transcutol and Water and MeOH and CHCl3 and Acetone”.
Turning to “1,4-bis[5,6-(4,4′-dihexyl)-diphenyl-1,2,4-triazin-3-yl]benzene [WP96]”, in series [4], the “Photostability at 5 MED, mean” value is given as 83.30 and the “Photostability at 10 MED, mean” value stood at 74.35. Further, the SPF in series [3] is on record as 68.02. For the same compound, the “Solubility (%)” value in series [5] (setting [6]) came to 1%. Further, the “Solubility (%)” value in series [5] (excipient Myritol 318 ® (caprylic/capric triglycerides)) is listed as 0.1%. Moreover, the “Solubility (%)” value in series [5] (setting [7]) is 2%. Besides, in series [5] (solvent Transcutol), the “Solubilities: Soluble, Transcutol” value was “Transcutol 0.5%”. In addition, in series [5], the “Solubilities: Soluble (solvent in which the compound is soluble)” value is “DMC and CHCl3 and Et2O and Toluene and Octanol and Methanol”; the “Solubilities: Insoluble” value is “EtOH and Myritol and Acetic acid”.
Turning to `CC(C)(C)CC(C)(C)c1cc(Cc2cc(C(C)(C)CC(C)(C)C)cc(-n3nc4ccccc4n3)c2O)c(O)c(-n2nc3ccccc3n2)c1` [Tinosorb M ®, reference compound], in series [2], the “Maximum molar extinction coefficient UVA” value is 36400 M⁻¹ cm⁻¹ and the “Maximum molar extinction coefficient UVB” value is 36600 M⁻¹ cm⁻¹. In addition, in series [2] (A1cm^1%), the “Maximum specific absorbance UVA” value was found to be 552 and the “Maximum specific absorbance UVB” value is listed as 556. In series [2] (the 'at ...' part of the cell), the “Wavelength of maximum molar extinction coefficient UVA” value is “at 345 nm”, the “Wavelength of maximum molar extinction coefficient UVB” value is given as “at 305 nm”, the “Wavelength of maximum specific absorbance UVA” value was “at 345 nm” and the “Wavelength of maximum specific absorbance UVB” value was “at 305 nm”. In series [3], this compound yielded an SPF of 54.07.
With `CCCCCCCCCCCCc1ccc(-c2nnc(-c3ccc(-c4nnc(-c5ccc(CCCCCCCCCCCC)cc5)c(-c5ccc(CCCCCCCCCCCC)cc5)n4)cc3)nc2-c2ccc(CCCCCCCCCCCC)cc2)cc1` [WP107, 1,4-bis[5,6-bis(4-dodecylphenyl)-1,2,4-triazine-3-yl]benzene], in series [1], the “Spectral distribution” value is “absorb in UVB and UVA”; the Absorption peaks was 300 nm. In addition, in series [4], the “Photostability at 5 MED, mean” value amounted to 89.27 and the “Photostability at 10 MED, mean” value stood at 84.75. Also, in series [2], the “Maximum molar extinction coefficient UVA” value is 95000 M⁻¹ cm⁻¹ and the “Maximum molar extinction coefficient UVB” value was 92000 M⁻¹ cm⁻¹. In addition, in series [2] (A1cm^1%), the “Maximum specific absorbance UVA” value stood at 783 and the “Maximum specific absorbance UVB” value is given as 757. For the same compound, in series [2] (the 'at ...' part of the cell), the “Wavelength of maximum molar extinction coefficient UVA” value is “at 335 nm”, the “Wavelength of maximum molar extinction coefficient UVB” value is “at 300 nm”, the “Wavelength of maximum specific absorbance UVA” value was “at 335 nm” and the “Wavelength of maximum specific absorbance UVB” value is given as “at 300 nm”. Besides, in series [5] (excipient Arlasolve DMI ® (dimethyl isosorbide)), the “Solubility (%)” value is given as 1%. The “Solubility (%)” value in series [5] (setting [6]) is 1%. The “Solubility (%)” value in series [5] (setting [7]) amounted to 1%. In series [5], the “Solubilities: Soluble (solvent in which the compound is soluble)” value is “DCM and CHCl3 and Toluene and Octanol and Ethyl acetate and DMSO”; the “Solubilities: Insoluble” value was “EtOH and Acetic acid and MeOH and Myritol and Transcutol”.
